Data from patent publication US6692927B2, “Bax degradation involvement in tumor survival and progression” (University of South Florida, priority 2000, dated 2004).
Where a SMILES comes first, the peptide text is derived from it. [ ]: non-standard residue; d: D form. The star is where a group is joined. Nle = CCCC[C@H](N)C(=O)O; Cbz = O=C(OCc1ccccc1)*

How the values were obtained:
[1] = tested on: simian virus 40-transformed and parental normal human fibroblasts; conditions: but not the parental normal; cited from earlier work
[2] = tested on: human Jurkat T cells overexpressing Bcl-2 and human prostate, breast, tongue and brain tumor cell lines; conditions: cited from earlier work; for apoptosis induction / cell kill: low concentrations, same conditions for etoposide
Bax degradation activity = assay: cell-free Bax degradation assay, inhibitor added to MCF-7 cell extract; format: biochemical, human; conditions: 10-minute preincubation of MCF-7 cell extract with inhibitor (100 mM per FIG. 9C legend), 37° C., 4 h
Experimental: (§1) FIGS. 9A-9F show Bax degradation depends on ubiquitination, proteasome and ATP. (FIG. 9A) Jurkat cells (0 h) were treated with either 50 μM LLnV or 10 μM lactacystin, followed by preparation of Bax immunoprecipitates (with clone 6A7), which were immunoblotted with an ubiquitin antibody. Positions of putative ubiquitinated Bax proteins (p47, p55) are indicated at left. The nature of the ˜30 kDa and ˜84 kDa remains unclear. (FIG. 9B) The [^35S]-labeled Bax (upper) or Bcl-2 (lower) protein (1 μl) were incubated at 37° C. for 2 h with either buffer Z only (lane 1) or […] protein extract of MCF-7 cells grown exponentially (lane 2) or pretreated for 8 h with […] LLnV (lane 3). (FIG. 9C) The [^35S]-labeled Bax protein (1 μl) was incubated with either buffer Z only (lane 1) or 100 μg MCF-7 cell lysate at 37° C. for 4 h, in the presence of an indicated inhibitor (100 mM; lanes 3-8) or an equal volume of DMSO (lane 2) in buffer Z. A weak band of ˜16 kDa (indicated by an arrow) is probably an intermediate product of proteasome-mediated Bax degradation. (FIG. 9D) The proteasome in MCF-7 whole cell lysate (W lys, lane 1) was precipitated by using either ultraspin (ULS) or a proteasome subunit a6 antibody (IP). Both supernatant (lanes 2, 4) and pellet (lanes 3, 5) fractions were examined by Western blot assay using antibody to the proteasome a6 subunit (MW 33 kDa). (FIG. 9E) Bax degradation assay was performed as in FIG. 9B, with addition of buffer Z (lane 1) or 100 μg protein from MCF-7 whole cell lysate (lane 2), ultraspun supernatant (lane 3) or plus the pellet (lane 4), immunodepleted supernatant (lane 5) or plus a purified 20S proteasome ([…]; lane 6), or the purified proteasome alone (2 μg; lane 7). (FIG. 9F) Bax degradation assay was performed as in FIG. 9B, in the absence (lane 3) or presence of 10 mM ATP (lane 2) or 10 mM ATP-y-S (lane 4).
In vitro Bax Degradation Assay: Human Bax-a cDNA subcloned into pcDNA3 was a gift from Dr. Hong-gang Wang. Human full length of bcl-2-a cDNA was cloned from Jurkat T cells and subcloned into pcDNA3.1(−) as described+. Both bax and bcl-2 plasmids were used for coupled in vitro transcription/translation (Promega; Madison, Wis.) in the presence of [^35S]methionine (Amersham Pharmacia Biotech; Piscataway, N.J.). Protein extracts were prepared from either MCF-7 cells or prostate tumor tissues in buffer Y (50 mM Tris-HCl, pH 7.4, 250 mM NaCl, 1% Triton X-100, 0.1% SDS, 1 mM EDTA), and used for Bax (or Bcl-2) degradation assay. Briefly, 1 microl of [^35S]-labeled Bax (or Bcl-2) protein was incubated at 37° C. for 2-4 hours with 100-200 microg protein extract in buffer Z (50 mM Tris-HCl, pH 7.4, 5 mM MgCl2, 3 mM DTT, 10 mM ATP, 10 mM phosphocreatine, 10 microg/ml creatine phosphokinase, 10 microg/ml aprotinin, 10 microg/ml leupeptin, 10% glycerol and 2 microg/ml ubiquitin). After incubation, the samples were subjected to gel electrophoresis and autoradiography. Under the cell-free assay conditions, the calpain-mediated Bax cleavage activity was blocked by omission of calcium and addition of the protease inhibitor leupeptin (Wood et al, 1998). To deplete the proteasome, MCF-7 cell lysates were either immunoprecipitated with the 20S proteasome subunit a6 antibody or ultracentrifugated at 100,000×g for 6 hours. The proteasome-enriched pellet fraction was resuspended in buffer Y.
To further study the proteasome activity that degrades Bax protein, a cell-free Bax degradation assay was developed by using an in vitro-translated, [^35S]-labeled Bax protein as substrate (FIG. 9B, upper, lane 1). The Bax degradation activity is present in protein extracts prepared from exponentially growing MCF-7 (FIG. 9), K562, VA-13, WI-38, Jurkat T or HL-60 cells. The labeled Bax was almost completely degraded by a MCF-7 cell extract after 2 to 4 hours incubation at 37° C. (FIG. 9B, upper, and FIG. 9C, lanes 2 vs. 1). […]

Jurkat T cells = assay: Western blot and Bax IP/ubiquitin blot in Jurkat T cells; format: cell-based, human; conditions: 50 microM
Experimental: FIGS. 8A-8D show proteasome inhibition accumulates Bax to mitochondria/cytoplasm and increases interaction between Bax and Bcl-2 proteins. Jurkat cells (0 h; FIG. 8A and FIG. 8B) or Jurkat cells overexpressing Bcl-2 (0 h; FIG. 8C and FIG. 8D) were treated by either 10 μM lactacystin (FIGS. 8A-8C), 50 μM LLnV (FIG. 8D), or 50 μM LLM (FIG. 8A and FIG. 8B) for the indicated hours. (FIG. 8A and FIG. 8B) Western blotting with antibodies to PARP and Bax were performed as described in FIG. 7. (FIG. 8C) Immunohistochemistry (see MATERIALS AND METHODS). Localization of Bax protein (green) and nuclei (red) are shown. (FIG. 8D) Bax immunoprecipitates, prepared by an agarose-conjugated N-20 Bax antibody, were immunoblotted first with the 6A7 Bax antibody (upper) and then reblotted with a Bcl-2 antibody (lower).
as §1, with “4). […]” for “4).”

normal WI-38 cells = assay: PARP cleavage, cytochrome c release, Bax and p21 in normal fibroblasts; format: cell-based, human; conditions: LLnL at up to 200 microM, 14 hours
From the text: Proteasome inhibitors activate Bax- and cytochrome c-dependent apoptosis pathway preferentially in transformed human fibroblasts. Normal human fibroblasts are more resistant to proteasome inhibitor-induced apoptosis than transformed and cancer cells (An et al., in press). This is probably due to inability of the normal cells to accumulate Bax protein in response to proteasome inhibition, and consequently failure to release cytochrome c. To test this hypothesis, both SV40-transformed and normal WI-38 cells were treated with 50 microM LLnV for up to 24 hours, followed by measurement of PARP cleavage, cytochrome c release and Bax accumulation. […] In contrast, only after 24 hours treatment, low levels of p85/PARP fragment and cytosolic cytochrome c were detected in normal WI-38 cells (FIGS. 1, A, B, lanes 8-14). […] The levels of Bax/p21 were increased at as early as 4 hours and remained high afterwards. […] The level of another band of ˜47 kDa increased at 4 hours, further increased between 6 and 12 hours, and then decreased (FIG. 1C). The p70 and p47 bands can contain ubiquitinated forms of Bax since similar polypeptides were detected by antibodies to both Bax and ubiquitin (Li et al., 1999). […] Therefore, although unable to activate the Bax- and cytochrome c-dependent apoptotic pathway in response to a low concentration of a proteasome inhibitor, normal cells are capable of undergoing Bax- and cytochrome c-independent apoptosis in response to a proteasome inhibitor at higher concentrations.
SV40-transformed (VA-13) and normal WI-38 cells were treated with 50 microM LLnV or DMSO (letter D) for up to 24 hours, followed by measurement of PARP cleavage (A), cytochrome c release (B) and Bax accumulation (C; also see FIG. 2). Panel D, exponentially grown VA-13 cells were pretreated with 50 microM LLnV or DMSO for 1 hour, washed with methionine-free medium, and then incubated for 30 minutes in methionine-free medium plus 50 microM LLnV (or DMSO). This was followed by replacing fresh methionine-free medium containing 150 microCi/ml of [^35S]-methionine, 10% dialyzed FBS and 50 microM LLnV (or DMSO). Cells were further incubated for 6 hours, followed by preparation of [^35S]-labeled protein lysates and Bax immunoprecipitates (6A7, PharMingen). The labeled Bax bands are indicated. […] Bax-alpha subcloned into pcDNA3 was used for coupled in vitro transcription/translation in the presence of [^35S]methionine. For Bax cleavage assay, the whole cell extracts were prepared. The [^35S]-labeled Bax (0.7 microl) was incubated with 50 microg protein in assay buffer (containing 50 microM LLM and no Ca^2+) for 4 hours at 37° C. Following incubation, the samples were subjected to SDS gel electrophoresis and autoradiography.

Row | Molecule | Bax degradation process/activity (Bax degradation activity) | also measured
1 | CC(C)C[C@@H](C=O)NC(=O)[C@H](CCCN=C(N)N[N+](=O)[O-])NC(=O)C(CCCCCCCCN1C(=O)c2ccccc2C1=O)C1CCCC1 (some centres unmarked) [CEP1612] | – | p27 accumulation and apoptosis [1]: selectively accumulates p27 and induces apoptosis; cyclin-dependent kinase inhibitors p21 and p27 ([2]; associated with CEP1612-induced apoptosis): accumulation of the cyclin-dependent kinase inhibitors p21 and p27; apoptosis induction / cell kill [2]: rapidly induces apoptosis
2 | CC(C)C[C@@H](C=O)NC(=O)[C@H](CC(C)C)NC(=O)[C@H](CC(C)C)NC(=O)OCc1ccccc1 [LLL] (Cbz-Leu-Leu-Leu-aldehyde) | blocked | –
3 | CSCCC(C=O)NC(=O)C(CC(C)C)NC(=O)C(CC(C)C)NC(C)=O (stereo not drawn) [LLM] (Ac-Leu-Leu-Met-aldehyde; configuration not given here) | not | Bax accumulation and PARP cleavage (Jurkat T cells): had no such effects
4 | CCCC[C@@H](C=O)NC(=O)[C@H](CC(C)C)NC(=O)[C@H](CC(C)C)NC(C)=O [LLnL] (Ac-Leu-Leu-[Nle]-aldehyde) | blocked | apoptosis as judged by PARP cleavage (normal WI-38 cells): underwent apoptosis; cytochrome c release and Bax accumulation (normal WI-38 cells): neither release cytochrome c nor accumulate Bax; levels of the cdk inhibitor p21 (normal WI-38 cells): significantly increased
5 | CCN1C(=O)C=CC1=O [N-ethylmaleimide] | not inhibited | –
6 | CC(=O)N[C@@H](CC(=O)O)C(=O)N[C@@H](CCC(=O)O)C(=O)N[C@H](C(=O)N[C@@H](CC(=O)O)C(=O)CF)C(C)C [acetyl-DEVD-fluoromethyl ketone] | not inhibited | –
7 | CC(=O)N[C@@H](Cc1ccc(O)cc1)C(=O)N[C@H](C(=O)N[C@@H](C)C(=O)N[C@@H](CC(=O)O)C(=O)CCl)C(C)C [acetyl-YVAD-chloromethyl ketone] | not inhibited | –
8 | CC(C)[C@H](O)[C@@]12NC(=O)[C@H](C)[C@@H]1OC2=O [b-lactone, clasto-lactacyctin b-lactone] | blocked | –
9 | N=C(N)c1ccccc1 [benzamidine] | not inhibited | –
10 | COc1cc([C@@H]2c3cc4c(cc3[C@@H](O[C@@H]3O[C@@H]5CO[C@@H](C)O[C@H]5[C@H](O)[C@H]3O)[C@H]3COC(=O)[C@H]23)OCO4)cc(OC)c1O [etoposide] | – | apoptosis induction / cell kill [2]: fails to kill these cells
11 | CC(=O)N[C@@H](CC(C)C)C(=O)N[C@@H](CC(C)C)C(=O)N[C@H](C=O)CCCNC(=N)N [leupeptin] | not inhibited | –
12 | O=S(=O)(F)Cc1ccccc1 [phenylmethylsulfonyl fluoride] | not inhibited | –
13 | aprotinin | not inhibited | –
14 | tosyl-L-lysine chloromethyl ketone | not inhibited | –
